Laboratory results: PMC7211202 (Investigational New Drugs, 2019)
“And” between values parts separate entries of the source, which are not always exact repeats. Equal entries are not always repeated.

Test: Patient incidence of adverse events (CTCAE version 4.0)
Assay type: in vivo
Excerpt: Each patient was monitored for 21 days for the occurrence of dose-limiting toxicities (DLTs), defined as febrile neutropenia, neutropenic infection, grade 4 neutropenia lasting >7 days, grade ≥ 3 thrombocytopenia lasting >7 days (solid tumors only), grade 3 thrombocytopenia with grade ≥ 2 bleeding (solid tumors only), grade 3 or 4 thrombocytopenia with grade > 1 bleeding (multiple myeloma only), grade 4 thrombocytopenia (solid tumors only), or grade 4 thrombocytopenia lasting >14 days (multiple myeloma only), or as grade ≥ 3 nausea, vomiting, or diarrhea after support; grade 3 fatigue lasting >7 days; any other grade ≥ 3 adverse event (AE); grade ≥ 3 kidney injury (multiple myeloma only), or treatment-related AEs not returning to grade ≤ 1 (solid tumors only) per Common Terminology Criteria for Adverse Events (CTCAE), version 4.0. The MTD was defined as the maximum dose, at which the probability of a DLT was ≤25% in Part 1A and ≤ 33% in Parts 1B and 1C. Treatment continued until disease progression, intolerable toxicity, or withdrawal of consent.
AEs were recorded for all enrolled patients.

[1] = 240-mg dose expansion, Other Solid (n = 16)
[2] = 240-mg dose expansion, Total (n = 68)
[3] = 240-mg dose expansion, WDLPS (n = 10)
[4] = 240-mg dose expansion, all patients

SMILES: CC(C)[C@@H](CS(=O)(=O)C(C)C)N1C(=O)[C@@](C)(CC(=O)O)C[C@H](c2cccc(Cl)c2)[C@H]1c1ccc(Cl)cc1 [AMG 232]
- Serious, treatment-related AE: Hyperlipasemia (grade 3) [1]: 0 n (%)
- Serious, treatment-related AE: Nausea (grade 3) [1]: 0 n (%)
- Serious, treatment-related AE: Pulmonary embolism (grade 3) [1]: 0 n (%)
- Serious, treatment-related AE: Vomiting (grade 3) [1]: 0 n (%)
- Treatment-related AE: Anemia [1]: 3 (19) n (%)
- Treatment-related AE: Asthenia [1]: 2 (13) n (%)
- Treatment-related AE: Decrease appetite [1]: 4 (25) n (%)
- Treatment-related AE: Diarrhea [1]: 8 (50) n (%)
- Treatment-related AE: Dysgeusia [1]: 2 (13) n (%)
- Treatment-related AE: Fatigue [1]: 6 (38) n (%)
- Treatment-related AE: Nausea [1]: 11 (69) n (%)
- Treatment-related AE: Neutropenia [1]: 1 (6) n (%)
- Treatment-related AE: Thrombocytopenia [1]: 2 (13) n (%)
- Treatment-related AE: Vomiting [1]: 8 (50) n (%)
- Patients with any treatment-emergent AE [2]: 67 (99%) n (%) and 67 (99) n (%)
- Patients with any treatment-emergent serious AE [2]: 29 (43%) n (%) and 29 (43) n (%)
- Patients with any treatment-related AE, Grade 3 [2]: 25 (37) n (%)
- Patients with any treatment-related AE, Grade 4 [2]: 8 (12) n (%)
- Patients with any treatment-related AE, Grade 5 [2]: 0 n (%)
- Serious, treatment-related AE: Dehydration (grade 3) [2]: 1 (2) n (%)
- Serious, treatment-related AE: Diarrhea (grade 3) [2]: 1 (2) n (%)
- Serious, treatment-related AE: Hyperamylasemia (grade 3) [2]: 1 (2) n (%)
- Serious, treatment-related AE: Hyperlipasemia (grade 3) [2]: 1 (2) n (%)
- Serious, treatment-related AE: Nausea (grade 3) [2]: 1 (2) n (%)
- Serious, treatment-related AE: Pulmonary embolism (grade 3) [2]: 1 (2) n (%)
- Serious, treatment-related AE: Vomiting (grade 3) [2]: 3 (4) n (%)
- Treatment-related AE: Anemia [2]: 10 (15) n (%)
- Treatment-related AE: Asthenia [2]: 9 (13) n (%)
- Treatment-related AE: Decrease appetite [2]: 28 (41) n (%)
- Treatment-related AE: Diarrhea [2]: 46 (68) n (%)
- Treatment-related AE: Dysgeusia [2]: 9 (13) n (%)
- Treatment-related AE: Fatigue [2]: 32 (47) n (%)
- Treatment-related AE: Nausea [2]: 46 (68) n (%)
- Treatment-related AE: Neutropenia [2]: 12 (18) n (%)
- Treatment-related AE: Thrombocytopenia [2]: 14 (21) n (%)
- Treatment-related AE: Vomiting [2]: 32 (47) n (%)
- Patients with any serious, treatment-related AE [3]: 2 (20) n (%)
- Patients with any treatment-emergent AE [3]: 10 (100) n (%)
- Patients with any treatment-emergent serious AE [3]: 5 (50) n (%)
- Patients with any treatment-related AE [3]: 10 (100) n (%)
- Patients with any treatment-related AE, Grade 3 [3]: 6 (60) n (%)
- Patients with any treatment-related AE, Grade 4 [3]: 3 (30) n (%)
- Patients with any treatment-related AE, Grade 5 [3]: 0 n (%)
- Serious, treatment-related AE: Dehydration (grade 3) [3]: 1 (10) n (%)
- Serious, treatment-related AE: Diarrhea (grade 3) [3]: 0 n (%)
- Serious, treatment-related AE: Hyperamylasemia (grade 3) [3]: 0 n (%)
- Serious, treatment-related AE: Hyperlipasemia (grade 3) [3]: 0 n (%)
- Serious, treatment-related AE: Nausea (grade 3) [3]: 0 n (%)
- Serious, treatment-related AE: Pulmonary embolism (grade 3) [3]: 1 (10) n (%)
- Serious, treatment-related AE: Vomiting (grade 3) [3]: 0 n (%)
- Treatment-related AE: Anemia [3]: 5 (50) n (%)
- Treatment-related AE: Asthenia [3]: 0 n (%)
- Treatment-related AE: Decrease appetite [3]: 7 (70) n (%)
- Treatment-related AE: Diarrhea [3]: 9 (90) n (%)
- Treatment-related AE: Dysgeusia [3]: 1 (10) n (%)
- Treatment-related AE: Fatigue [3]: 8 (80) n (%)
- Treatment-related AE: Nausea [3]: 10 (100) n (%)
- Treatment-related AE: Thrombocytopenia [3]: 6 (60) n (%)
- Treatment-related AE: Vomiting [3]: 7 (70) n (%)
- Treatment-emergent AE: anemia [4]: 25%
- Treatment-emergent AE: decreased appetite [4]: 41%
- Treatment-emergent AE: diarrhea [4]: 72%
- Treatment-emergent AE: fatigue [4]: 53%
- Treatment-emergent AE: nausea [4]: 72%
- Treatment-emergent AE: thrombocytopenia [4]: 24%
- Treatment-emergent AE: vomiting [4]: 59%
- Treatment-related AE: Diarrhea [4]: 68%
- Treatment-related AE: Fatigue [4]: 47%
- Treatment-related AE: Nausea [4]: 68%
- Treatment-related AE: Thrombocytopenia [4]: 21%
- Treatment-related AE: Vomiting [4]: 47%
- Treatment-related AE: decreased appetite [4]: 41%
- Patients with fatal AEs while on study (240-mg dose expansion, two with disease progression and one with physical deterioration): Three
- AE resulting in treatment discontinuation: febrile neutropenia (dose escalation): 1 n
- AE resulting in treatment discontinuation: neutropenia (dose escalation): 2 n
- AE resulting in treatment discontinuation: thrombocytopenia (dose escalation): 5 n
- Patients with AEs resulting in treatment discontinuation (dose escalation): eight
- Patients with fatal AEs of disease progression while on study (dose escalation): Four
- Patients with any treatment-emergent AE (dose escalation, 15 mg (n = 3)): 1 (33) n (%)
- Patients with any treatment-emergent serious AE (dose escalation, 15 mg (n = 3)): 1 (33) n (%)
- Patients with any treatment-related AE (dose escalation, 15 mg (n = 3)): 1 (33) n (%)
- Patients with any treatment-related AE, Grade 3 (dose escalation, 15 mg (n = 3)): 0 n (%)
- Patients with any treatment-related AE, Grade 4 (dose escalation, 15 mg (n = 3)): 0 n (%)
- Patients with any treatment-related AE, Grade 5 (dose escalation, 15 mg (n = 3)): 0 n (%)
- Patients with any treatment-related serious AE (dose escalation, 15 mg (n = 3)): 0 n (%)
- Treatment-related AE: Abdominal pain (dose escalation, 15 mg (n = 3)): 0 n (%)
- Treatment-related AE: Anemia (dose escalation, 15 mg (n = 3)): 0 n (%)
- Treatment-related AE: Asthenia (dose escalation, 15 mg (n = 3)): 0 n (%)
- Treatment-related AE: Decrease appetite (dose escalation, 15 mg (n = 3)): 0 n (%)
- Treatment-related AE: Diarrhea (dose escalation, 15 mg (n = 3)): 0 n (%)
- Treatment-related AE: Dysgeusia (dose escalation, 15 mg (n = 3)): 0 n (%)
- Treatment-related AE: Fatigue (dose escalation, 15 mg (n = 3)): 1 (33) n (%)
- Treatment-related AE: Myalgia (dose escalation, 15 mg (n = 3)): 0 n (%)
- Treatment-related AE: Nausea (dose escalation, 15 mg (n = 3)): 0 n (%)
- Treatment-related AE: Neutropenia (dose escalation, 15 mg (n = 3)): 0 n (%)
- Treatment-related AE: Thrombocytopenia (dose escalation, 15 mg (n = 3)): 0 n (%)
- Treatment-related AE: Upper abdominal pain (dose escalation, 15 mg (n = 3)): 0 n (%)
- Treatment-related AE: Vomiting (dose escalation, 15 mg (n = 3)): 0 n (%)
- Treatment-related serious AE: Abdominal pain (grade 2) (dose escalation, 15 mg (n = 3)): 0 n (%)
- Treatment-related serious AE: Dehydration (grade 2) (dose escalation, 15 mg (n = 3)): 0 n (%)
- Treatment-related serious AE: Diarrhea (dose escalation, 15 mg (n = 3)): 0 n (%)
- Treatment-related serious AE: Diarrhea, Grade 2 (dose escalation, 15 mg (n = 3)): 0 n (%)
- Treatment-related serious AE: Diarrhea, Grade 3 (dose escalation, 15 mg (n = 3)): 0 n (%)
- Treatment-related serious AE: Febrile neutropenia (grade 3) (dose escalation, 15 mg (n = 3)): 0 n (%)
- Treatment-related serious AE: Hematemesis (grade 3) (dose escalation, 15 mg (n = 3)): 0 n (%)
- Treatment-related serious AE: Nausea (grade 3) (dose escalation, 15 mg (n = 3)): 0 n (%)
- Treatment-related serious AE: Neutropenia (grade 4) (dose escalation, 15 mg (n = 3)): 0 n (%)
- Treatment-related serious AE: Non-cardiac chest pain (grade 3) (dose escalation, 15 mg (n = 3)): 0 n (%)
- Treatment-related serious AE: Thrombocytopenia (grade 4) (dose escalation, 15 mg (n = 3)): 0 n (%)
- Treatment-related serious AE: Vomiting (dose escalation, 15 mg (n = 3)): 0 n (%)
- Treatment-related serious AE: Vomiting, Grade 2 (dose escalation, 15 mg (n = 3)): 0 n (%)
- Treatment-related serious AE: Vomiting, Grade 3 (dose escalation, 15 mg (n = 3)): 0 n (%)
- Patients with any treatment-emergent AE (dose escalation, 30 mg (n = 3)): 3 (100) n (%)
- Patients with any treatment-emergent serious AE (dose escalation, 30 mg (n = 3)): 0 n (%)
- Patients with any treatment-related AE (dose escalation, 30 mg (n = 3)): 1 (33) n (%)
- Patients with any treatment-related AE, Grade 3 (dose escalation, 30 mg (n = 3)): 0 n (%)
- Patients with any treatment-related AE, Grade 4 (dose escalation, 30 mg (n = 3)): 0 n (%)
- Patients with any treatment-related AE, Grade 5 (dose escalation, 30 mg (n = 3)): 0 n (%)
- Patients with any treatment-related serious AE (dose escalation, 30 mg (n = 3)): 0 n (%)
- Treatment-related AE: Abdominal pain (dose escalation, 30 mg (n = 3)): 0 n (%)
- Treatment-related AE: Anemia (dose escalation, 30 mg (n = 3)): 0 n (%)
- Treatment-related AE: Asthenia (dose escalation, 30 mg (n = 3)): 0 n (%)
- Treatment-related AE: Decrease appetite (dose escalation, 30 mg (n = 3)): 0 n (%)
- Treatment-related AE: Diarrhea (dose escalation, 30 mg (n = 3)): 1 (33) n (%)
- Treatment-related AE: Dysgeusia (dose escalation, 30 mg (n = 3)): 0 n (%)
- Treatment-related AE: Fatigue (dose escalation, 30 mg (n = 3)): 1 (33) n (%)
- Treatment-related AE: Myalgia (dose escalation, 30 mg (n = 3)): 0 n (%)
- Treatment-related AE: Nausea (dose escalation, 30 mg (n = 3)): 1 (33) n (%)
- Treatment-related AE: Neutropenia (dose escalation, 30 mg (n = 3)): 0 n (%)
- Treatment-related AE: Thrombocytopenia (dose escalation, 30 mg (n = 3)): 0 n (%)
- Treatment-related AE: Upper abdominal pain (dose escalation, 30 mg (n = 3)): 0 n (%)
- Treatment-related AE: Vomiting (dose escalation, 30 mg (n = 3)): 1 (33) n (%)
- Treatment-related serious AE: Abdominal pain (grade 2) (dose escalation, 30 mg (n = 3)): 0 n (%)
